# In patent publication US8268856B2, “Method to use compositions having antidepressant anxiolytic and other neurological activity and compositions of matter” (priority 2007, dated 2012):
# pKi: −log10 of the molar value.
# Legend:
# [1] = tested on: male Swiss Webster mice; test: Porsolt forced swim test (FST); type: in vivo, mouse; conditions: for antidepressant-like activity / effect on immobility time in FST: male Swiss Webster mice, IP, immobility during last 4 min of 6 min swim
# Description: (§1) Locomotor Activity and the FST. To evaluate the isolated compounds for antidepressant-like activity, male Swiss Webster mice (Harlan, Indianapolis, Ind.) (25-30 g weight) were used. Animals were housed in groups of five with a 12 h light/12 h dark cycle. Food and water were provided at libitum. All procedures involving animals were performed as approved by the Institutional Animal Care and Use Committee of the University of Mississippi. Animals were randomly divided into groups (n=6-10/group). Each group was injected IP with either the compound (1-20 mg/kg), desipramine (20 mg/kg), or vehicle (saline, 10% ethanol or 10% ethanol/1% DMSO). Following injection, locomotor activity was monitored using an automated activity monitoring system (San Diego Instruments, San Diego, Calif.). Each mouse was placed in a Plexiglas enclosure and locomotor activity was recorded as the number of photobeam interruptions for 30 min after drug injection. The activity for the last ten min was quantified and analyzed. Immediately at the end of the locomotor session, individual mice were subjected to the FST. The mice were individually placed in a clear plastic cylinder (23 cm high, 10 cm internal diameter) filled with deionized water (8 cm high) at 25° C. The mice were recorded with a video camera (positioned at about 30 cm above the cylinder) for a total of 6 min. The total period of immobility during the last 4 min was timed by three independent observers. The mean immobility time was then calculated. A mouse was judged to be immobile when it remained afloat, making only minimal movements to keep its head above water.
# For the FST, immobility times of the three independent rates were averaged for each mouse and data were analyzed using one way analysis of variance (ANOVA) followed by Bonferroni Multiple comparison posthoc tests to determine statistical differences from the corresponding vehicle control. Chick distress vocalization data were analyzed by two-way repeated measures ANOVA, one-way ANOVA and simple effects analyses with post-hoc comparisons conducted using Fisher's LSD test. p-Values less than 0.05 were considered statistically significant.
# (§2) Porsolt R D, et al. Behavioral Despair In Mice: A Primary Screening Test for Antidepressants, 229 Arch. Int. Pharmacodyn. 327-36 (1977). […] In order to control for false positives, as has been previously observed with psychostimulants, Cryan, J., et al. Assessing Substrates Underlying The Behavioral Effects Of Antidepressants Using The Modified Rat Forced Swimming Test. 29 Neurosci Biobehav Rev. 547-69 (2005) locomotor activity of the animals was monitored using an automated photobeam activity monitoring system. Lucki. I. The Forced Swimming Test As A Model For Core And Component Behavioral Effects Of Antidepressant Drugs. 8 Behav. Pharmacol. 522-32 (1997).
# [2] = tested on: male Swiss Webster mice; test: Locomotor activity test, Swiss Webster mice; type: in vivo, mouse; conditions: IP, photobeam interruptions, versus vehicle
# Description: as §1
# Effect of select compounds on locomotor activity. Since reductions in immobility time is the primary criterion to assess antidepressant like activity in both the FST and TST, it is crucial to confirm that the effects observed in both tests are not attributed to specific stimulant action of the tested compounds, which would be reflected as enhancement of the locomotor activity. Accordingly, the effect of tested compounds on locomotor activity was evaluated using an automated activity monitoring system.
# [3] = target: 5HT2A receptor (Homo sapiens, UniProt P28223); conditions: human serotonin receptor, reported; cited from earlier work
# 5HT2A receptor, sequence (P28223 whole entry): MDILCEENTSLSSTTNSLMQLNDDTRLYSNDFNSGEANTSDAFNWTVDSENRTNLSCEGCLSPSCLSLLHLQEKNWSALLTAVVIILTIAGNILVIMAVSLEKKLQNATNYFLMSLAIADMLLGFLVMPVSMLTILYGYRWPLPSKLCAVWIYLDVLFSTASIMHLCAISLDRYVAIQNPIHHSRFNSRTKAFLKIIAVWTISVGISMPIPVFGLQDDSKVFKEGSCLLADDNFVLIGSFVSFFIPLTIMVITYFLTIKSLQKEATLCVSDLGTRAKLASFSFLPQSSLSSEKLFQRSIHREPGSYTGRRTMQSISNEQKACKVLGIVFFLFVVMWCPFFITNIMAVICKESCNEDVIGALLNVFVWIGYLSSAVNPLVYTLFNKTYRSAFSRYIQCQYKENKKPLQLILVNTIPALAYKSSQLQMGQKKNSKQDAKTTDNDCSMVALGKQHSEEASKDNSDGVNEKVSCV
# [4] = target: T1, 5HT2C receptor (Homo sapiens, UniProt P28335); conditions: cited from earlier work; for pKi: human serotonin receptor, reported
# T1 sequence (P28335 33-458): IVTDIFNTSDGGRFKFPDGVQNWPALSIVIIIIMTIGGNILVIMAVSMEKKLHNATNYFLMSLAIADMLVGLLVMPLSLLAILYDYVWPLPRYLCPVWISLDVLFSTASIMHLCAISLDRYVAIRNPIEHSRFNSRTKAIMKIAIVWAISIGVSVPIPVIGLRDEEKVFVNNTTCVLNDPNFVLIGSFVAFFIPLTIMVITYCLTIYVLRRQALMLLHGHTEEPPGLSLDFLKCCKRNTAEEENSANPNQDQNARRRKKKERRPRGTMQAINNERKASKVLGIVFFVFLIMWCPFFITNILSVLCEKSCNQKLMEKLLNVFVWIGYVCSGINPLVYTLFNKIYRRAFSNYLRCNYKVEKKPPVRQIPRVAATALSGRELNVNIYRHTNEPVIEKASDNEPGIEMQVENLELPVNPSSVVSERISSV
# [5] = tested on: serotonin receptors; test: Affinity to serotonin receptors (receptor binding panel); design: species or system human or rodent
# Description: Evaluation of binding affinity of isolated compounds to serotonin receptors. In vitro testing of isolated compounds was completed using a small panel of receptor binding assays and then validated in a comprehensive panel by the NIMH Psychoactive Drug Screening Program. Pharmacological and functional screening of isolated molecules was performed on cloned human or rodent CNS receptors, channels, and transporters. Hu, J-F., et al. New Antiinfective and Human 5-HT2 Receptor Binding Natural and Semisynthetic Compounds from the Jamaican Sponge Smenospongia aurea. 65 Jour. of Nat. Prod. 476-80 (2002).
# as §2
# [6] = tested on: Male DBA2/J mice; test: Mouse tail suspension test (TST); type: in vivo; conditions: i.p., versus vehicle
# From the text: Based on the data collected from the FST, the antidepressant action of aaptamine. 5,6-dibromo-N,N-dimethyltryptamine, and 3-bromotyramine was examined in the mouse tail suspension test (TST), another model highly predictive of antidepressant action. Similar to the FST, this test depends on the depressive behavior elicited by the animals when placed in an inescapable situation, in this case suspending the animal by its tail. Male DBA2/J mice were used for this test.
# In fact, higher doses seem to increase immobility time (FIG. 9C). […] However, such effect was only evident at the 40 mg/kg dose (compared to 10 and 20 mg/kg dose in the FST) (FIG. 9D).
Molecule,antidepressant-like activity / effect on immobility time in FST ([1]; versus vehicle),pKi [3],pKi [4],other results
"CN(C)CCc1c[nH]c2ccc(Br)cc12 [5-bromo-N,N-dimethyltryptamine]",did not exhibit antidepressant-like activity,,,effect on locomotor activity [2]: significant reduction of locomotor activity; effect on locomotor activity ([2]; listed as 2): significant sedative effect
CN1C(=N)NC(=Cc2c[nH]c3cc(Br)ccc23)C1=O [6-bromo-2′-de-N-methylaplysinopsin],,< 4.00,5.64,selectivity to 5HT2C receptors ([4]; 5HT2C over 5HT2A): 40 fold
CN1C(=N)N(C)/C(=C/c2c[nH]c3cc(Br)ccc23)C1=O [6-bromoaplysinopsin],,5.70,6.48,
"Oc1cc2ccnc3c2c(c1O)NC=C3 [8,9-demethylaaptamine]",Neither,,,affinities to serotonin receptors [5]: moderate affinities
"CN1C(=N)N(C)/C(=C/c2c[nH]c3ccccc23)C1=O [Aplysinopsin, aplysinopsin]",did not show any significant antidepressant-like activity,,,
COc1cc2ccnc3c2c(c1OC)NC=C3 [aaptamine],,,,"reduction in immobility time in FST ([1]; 20 mg/kg dose, versus vehicle): 36%"
"CN(C)CCCC1(c2ccc(F)cc2)OCc2cc(C#N)ccc21 (centres unmarked) [citalopram, reference compound]",,,,"reduction in immobility time in FST ([1]; 5 mg/kg dose, versus saline vehicle): 40%"
"CNCCCN1c2ccccc2CCc2ccccc21 [desipramine, reference compound]",,,,"reduction in immobility time in FST ([1]; 20 mg/kg dose, versus vehicle): 27%; antidepressant-like action / immobility in tail suspension test [6]: significant reduction in immobility; effect on locomotor activity [2]: no significant difference in locomotor activity"
COc1cc2ccnc3c2c(c1O)N(C)C=C3 [isoaaptamine],significantly increased immobility time in a dose-dependent manner,,,affinities to serotonin receptors [5]: moderate affinities
N-3′-ethylaplysinopsin,,5.77,5.46,
